Reference: ChEMBL document CHEMBL1133898 (Bioorg Med Chem Lett, 2001)

Columns and labels:
[1] = molecular target: T1, Sodium-dependent dopamine transporter (Rattus norvegicus, UniProt P23977); assay: Displacement of [3H][…] from dopamine transporter (DAT) of rat striatal membrane
[2] = molecular target: T1, Sodium-dependent dopamine transporter; assay: Inhibition of high affinity uptake of [3H]DA using rat nerve endings obtained from brain regions enriched in DAT.
[3] = molecular target: T2, Sodium-dependent serotonin transporter (Rattus norvegicus, UniProt P31652); assay: Displacement of [3H]5-HT from serotonin transporter of rat brain
[4] = molecular target: T3, Norepinephrine transporter (Rattus norvegicus, UniProt Q9WTR4); assay: Displacement of [3H]NE from Norepinephrine transporter of rat brain
[5] = molecular target: T2, Sodium-dependent serotonin transporter; assay: Evaluated for its ability to inhibit high affinity uptake of [3H]-5-HT using rat nerve endings obtained from brain regions enriched in serotonin transporter (5HTT); assay type: functional
[6] = molecular target: T3, Norepinephrine transporter; assay: Evaluated for its ability to inhibit high affinity uptake of [3H]NE using rat nerve endings obtained from brain regions enriched in norepinephrine transporter (NET); assay type: functional
[7] = molecular target: T2, Sodium-dependent serotonin transporter; assay: Evaluated for ability to inhibit high affinity uptake of [3H]5-HT using rat nerve endings obtained from brain regions enriched in serotonin transporter (5HTT); assay type: functional
[8] = molecular target: T3, Norepinephrine transporter; assay: Evaluated for ability to inhibit high affinity uptake of [3H]-NE using rat nerve endings obtained from brain regions enriched in Norepinephrine transporter; assay type: functional
[9] = molecular target: T3, Norepinephrine transporter; assay: (§1) Inhibitory concentration binding to Norepinephrine transporter using 0.2 nM […]; assay type: functional
[10] = molecular target: T2, Sodium-dependent serotonin transporter; assay: Inhibitory concentration binding to Serotonin transporter using 0.5 nM […]
[11] = molecular target: T1, Sodium-dependent dopamine transporter; assay: Inhibitory concentration binding to dopamine transporter using 0.5 nM [3H]WIN-35428
[12] = molecular target: T3, Norepinephrine transporter; assay: as §1
[13] = molecular target: T1, Sodium-dependent dopamine transporter; assay: Inhibitory concentration binding to Dopamine transporter using 0.5 nM [3H]WIN-35428

T3 sequence (Q9WTR4 whole entry): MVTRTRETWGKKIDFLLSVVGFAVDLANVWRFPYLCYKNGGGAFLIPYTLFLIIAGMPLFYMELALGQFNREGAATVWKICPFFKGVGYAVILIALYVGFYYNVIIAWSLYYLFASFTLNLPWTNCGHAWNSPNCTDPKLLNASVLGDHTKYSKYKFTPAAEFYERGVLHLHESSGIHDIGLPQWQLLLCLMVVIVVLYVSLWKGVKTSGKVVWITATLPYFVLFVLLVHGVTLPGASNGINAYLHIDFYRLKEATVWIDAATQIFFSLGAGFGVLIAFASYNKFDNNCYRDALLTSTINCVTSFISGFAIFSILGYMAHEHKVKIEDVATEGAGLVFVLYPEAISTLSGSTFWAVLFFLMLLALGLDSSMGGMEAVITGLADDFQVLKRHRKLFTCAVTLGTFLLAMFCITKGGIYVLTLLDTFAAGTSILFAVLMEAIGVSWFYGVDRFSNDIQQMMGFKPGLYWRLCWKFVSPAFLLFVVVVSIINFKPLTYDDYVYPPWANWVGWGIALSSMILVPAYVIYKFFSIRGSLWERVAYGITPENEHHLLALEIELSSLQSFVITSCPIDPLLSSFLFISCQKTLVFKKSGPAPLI
T2 sequence (P31652 whole entry): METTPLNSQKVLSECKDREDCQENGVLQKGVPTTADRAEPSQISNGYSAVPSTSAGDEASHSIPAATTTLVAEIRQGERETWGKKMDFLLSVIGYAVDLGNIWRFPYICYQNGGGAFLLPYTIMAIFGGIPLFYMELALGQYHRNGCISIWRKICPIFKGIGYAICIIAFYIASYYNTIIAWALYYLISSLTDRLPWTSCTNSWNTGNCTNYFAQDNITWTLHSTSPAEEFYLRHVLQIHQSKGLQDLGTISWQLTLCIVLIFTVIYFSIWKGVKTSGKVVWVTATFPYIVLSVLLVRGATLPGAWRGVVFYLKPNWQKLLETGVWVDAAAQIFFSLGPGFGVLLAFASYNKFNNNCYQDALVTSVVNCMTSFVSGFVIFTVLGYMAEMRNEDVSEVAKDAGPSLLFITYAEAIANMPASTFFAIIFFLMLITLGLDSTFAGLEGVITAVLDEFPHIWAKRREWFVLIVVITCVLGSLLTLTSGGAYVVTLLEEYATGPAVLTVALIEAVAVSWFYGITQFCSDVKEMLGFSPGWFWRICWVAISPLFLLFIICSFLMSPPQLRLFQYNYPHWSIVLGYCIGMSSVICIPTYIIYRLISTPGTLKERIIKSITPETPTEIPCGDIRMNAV
T1 sequence (P23977 whole entry): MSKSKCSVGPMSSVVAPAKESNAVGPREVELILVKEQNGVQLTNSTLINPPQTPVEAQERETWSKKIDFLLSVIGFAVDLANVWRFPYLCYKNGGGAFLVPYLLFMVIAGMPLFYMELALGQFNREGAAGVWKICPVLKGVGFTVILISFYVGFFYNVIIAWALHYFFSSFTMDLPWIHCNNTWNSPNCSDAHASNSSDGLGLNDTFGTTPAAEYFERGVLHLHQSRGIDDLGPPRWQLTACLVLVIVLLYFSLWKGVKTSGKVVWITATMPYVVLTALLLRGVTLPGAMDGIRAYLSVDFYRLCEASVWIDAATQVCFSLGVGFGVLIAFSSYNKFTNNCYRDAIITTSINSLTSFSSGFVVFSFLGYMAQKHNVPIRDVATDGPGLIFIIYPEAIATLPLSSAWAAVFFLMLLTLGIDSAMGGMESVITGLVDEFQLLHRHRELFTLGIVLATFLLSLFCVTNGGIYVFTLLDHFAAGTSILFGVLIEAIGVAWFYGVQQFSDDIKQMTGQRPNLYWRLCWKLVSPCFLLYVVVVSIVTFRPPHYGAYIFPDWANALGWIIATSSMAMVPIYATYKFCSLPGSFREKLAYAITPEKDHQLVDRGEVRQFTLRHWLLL

Compound | Ki [1] [nM] | Ki [2] [nM] | Ki [3] [nM] | Ki [4] [nM] | further results
CC(C)c1noc([C@H]2CN(C)CC[C@@H]2c2ccc(Cl)cc2)n1 | 494 | 391 | 2920 | 778 | 
COc1ccc(-c2noc([C@H]3CN(C)CC[C@@H]3c3ccc(Cl)cc3)n2)cc1 | > 3000 | > 3000 | > 3000 | > 3000 | 
Cc1noc([C@@H]2CN(C)CC[C@H]2c2ccc(Cl)cc2)n1 |  | 955 |  |  | IC50 [5]: > 3000 nM; IC50 [6]: > 1000 nM
COC(=O)[C@H]1CN(C)CC[C@@H]1c1ccc(Cl)cc1 | 315 |  | 8490 | 252 | 
COC(=O)[C@@H]1CN(C)CC[C@H]1c1ccc(Cl)cc1 | 2000 | 2930 | 930 | 396 | 
CN1CC[C@@H](c2ccc(Cl)cc2)[C@H](c2nc(-c3ccccc3)no2)C1 |  | 1710 |  |  | IC50 [7]: > 3000 nM; IC50 [8]: > 3000 nM
CC(C)c1noc([C@@H]2CN(C)CC[C@H]2c2ccc(Cl)cc2)n1 | 2900 | 3590 | 1220 | 2680 | 
CN1CC[C@@H](c2ccc(Cl)cc2)[C@H](c2nc(-c3ccc(Br)cc3)no2)C1 | > 3000 | > 3000 | > 3000 | > 3000 | 
CN1CC[C@@H](c2ccc(Cl)cc2)[C@H](c2nc(-c3ccc4c(c3)OCO4)no2)C1 | > 3000 | > 3000 | > 3000 | > 3000 | 
COc1ccc(-c2noc([C@@H]3CN(C)CC[C@H]3c3ccc(Cl)cc3)n2)cc1 | > 3000 | > 3000 | > 3000 | > 3000 | 
CN1CC[C@H](c2ccc(Cl)cc2)[C@@H](c2nc(-c3ccc4c(c3)OCO4)no2)C1 | > 3000 | > 3000 | > 3000 | > 3000 | 
CN1CC[C@H](c2ccc(Cl)cc2)[C@@H](c2nc(-c3ccc(Br)cc3)no2)C1 | > 3000 | > 3000 | > 3000 | > 3000 | 
CN1CC[C@@H](c2ccc(Cl)cc2)[C@H](c2nc(-c3ccc(Cl)cc3)no2)C1 | > 3000 | > 3000 | > 3000 | > 3000 | 
CN1CC[C@H](c2ccc(Cl)cc2)[C@@H](c2nc(-c3ccc(Cl)cc3)no2)C1 | > 3000 | > 3000 | > 3000 | > 3000 | IC50 [9]: 4070 nM; IC50 [10]: 404 nM; IC50 [11]: 4.06 nM
CN1CC[C@H](c2ccc(Cl)cc2)[C@@H](c2nc(-c3ccccc3)no2)C1 |  | 497 |  |  | IC50 [7]: > 3000 nM; IC50 [8]: > 10000 nM
Cc1noc([C@H]2CN(C)CC[C@@H]2c2ccc(Cl)cc2)n1 | 201 | 187 | 5960 | 256 | IC50 [12]: 363 nM; IC50 [10]: 2580 nM; IC50 [13]: 4.05 nM
